One series deals with E. coli BW25113. It counts as cell-based, Escherichia coli. The conditions noted are these: for MIC: Table 2. Summed up: (§1)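 For MIC, bacteria (final OD600 ~0.0002) were incubated with 2-fold peptide dilutions (top 400–800 μM) in cation-adjusted MHB II with or without EDTA, 20 h at 37 °C, read by OD600. EDTA was 0.5 mM for E. coli and 0.125 mM for USA300. The growth-inhibition assay used log-phase cells at OD600 ~0.001, 4 h at 37 °C, BacTiter-Glo luminescence.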

A further series concerns E. coli mcr-1. It counts as cell-based, Escherichia coli. To be noted: Table 5; colistin^R. Summed up:
as §1

In the next series the test system is S. aureus USA300. As to the kind of experiment: MIC assay, S. aureus USA300. It counts as cell-based, Staphylococcus aureus. The method in brief:
as §1

The test system of the next series is E. coli imp4213. The series can be described thus: MIC assay, E. coli imp4213. It counts as cell-based, Escherichia coli. The method in brief: as §1
The next series has as its system E. cloacae. The series can be described thus: MIC assay, E. cloacae. It counts as cell-based, Enterobacter cloacae. The procedure:
(§2) Bacterial growth conditions. LB or Mueller Hinton II cation-adjusted broth (MHB II, BBL 212322) was prepared according to manufacturer's instructions and supplemented with arabinose at 0.02% for overnight growth or at indicated concentrations in the description of the figures. Bacterial cultures were grown at 37° C. When appropriate, media was supplemented with kanamycin (50 μg/mL), carbenicillin (50 μg/mL), chloramphenicol (12.5 or 25 μg/mL), hygromycin (200 μg/mL), and/or gentamicin (10 μg/mL).
(§3) Peptide sensitivity and MIC assays. Lyophilized peptides (Smartox Biotechnology, CPC Scientific. ABclonal) were solubilized to 10 mM in Tris buffer, pH 8, prior to making a 2-fold dilution series in MHBII cation adjusted broth with highest final assay concentration of 400-800 μM. Bacteria were grown to log phase and added to final OD600˜0.001. The final EDTA concentration was 0.5 mM for E. coli strains and 0.125 mM for USA300. The final volume of 10 μL/well in a 384 well black, clear bottom plate (Corning) was spun <1 min at <250×g and then incubated at 37° C. After 4 h, an equal volume (10 μL) of BacTiter-Glo™ (Promega) was added to each well and luminescence was read after 5 min on an EnVision plate reader (PerkinElmer). […] Plates were incubated at 37° C. for 20 h before measuring OD600 with an EnVision plate reader.

The subject of the next series is K. pneumoniae. It counts as cell-based, Klebsiella pneumoniae. Summed up: as §1
Another series has as its system A. baumannii. It counts as cell-based, Acinetobacter baumannii. To be noted: for MIC: Table 3, + EDTA (2 mM). Summed up:
as §1

The next series concerns P. aeruginosa. It counts as cell-based, Pseudomonas aeruginosa. Summed up: as §1
The subject of the next series is E. coli-ATCC 25922. The series can be described thus: MIC assay, E. coli ATCC 25922. It counts as cell-based, Escherichia coli. The conditions noted are these: Table 5; E. coli ATCC 25922, WT with O-antigen. The procedure: as §2, §3
A further series relates to E. coli pmrA^G53Y. As to the kind of experiment: MIC assay, E. coli pmrA^G53Y (BW25113). To be noted: Table 5; colistin^R. It counts as cell-based, Escherichia coli. Here is the method: as §2, §3
In the next series the test system is E. coli K12. As to the kind of experiment: Time-kill: colony forming units of E. coli K12 over time. It counts as cell-based, Escherichia coli. To be noted: E. coli K12, FIG. 16A.
For another series, the system named is red blood cell. As to the kind of experiment: Red blood cell lysis assay. It counts as cell-based. To be noted: 50 μM, after 4 hrs, FIG. 16B.
For series [1], the system named is Staphylococcus aureus (USA300). The series can be described thus: Bacterial growth inhibition, Staphylococcus aureus (USA300). It counts as cell-based. The conditions noted are these: Gram-positive bacterium lacking LPS. Here is the method: as §2, §3
Series [2] concerns Enterobacter cloacae, Klebsiella pneumoniae, Acinetobacter baumannii, and Pseudomonas aeruginosa. The series can be described thus: MIC against wild-type bacterial pathogens (summary over species). It counts as cell-based. The conditions noted are these: range over the four wild-type pathogens. The procedure:
as §2, §3

The subject of series [3] is E. coli K-12 (pmrA^G53E and mcr-1). The series can be described thus: MIC against E. coli K-12 with PMX-resistance determinants (summary). To be noted: range over pmrA and mcr-1 strains. It counts as cell-based, Escherichia coli. The procedure:
as §2, §3

The nature of series [4]: Biolayer interferometry: captured biotinylated LAB peptides binding to LPS (KDO2-lipid A). The procedure: Biolayer interferometry. Phospholipid (Avanti polar lipids) and KDO2-lipid A (US Biological Life Sciences) stock solutions were prepared by resuspension into 25 mM Tris pH 8, 100 mM NaCl, 0.05% LMNG buffer and solubilized overnight at 4° C. Lipid stocks were diluted prior to experiments into 25 mM Tris pH 8, 100 mM NaCl, 0.5 mg/mL BSA, 0.05% LMNG. All assays were performed at 25° C. in 25 mM Tris pH 8, 100 mM NaCl, 0.5 mg/mL BSA, 0.05% LMNG. Biotinylated-LAB peptides were loaded onto SA biosensors to a response of approximately 0.5 nm. Binding to phospholipids and KDO2-lipid A was measured at concentrations of 150, 100, 50, 25, and 10 μM with 300s association and dissociation steps. Assays were performed in triplicate on an Octet Red384 (ForteBio) and buffer and lipid signals were subtracted by using a biotin-blocked reference streptavidin (SA) biosensor. Dissociation constants for LABWT and LABWT+, interactions with KDO2-lipidA were estimated by plotting response values at equilibrium as a function of concentration and fit to a global specific binding with Hill slope model in Prism (Graphpad Software).
Based on the intriguing chemical characteristics of the LPS-PbgA interface, the possibility that a linear peptide derived from PbgA might selectively bind to LPS in vitro was considered. A peptide encompassing the lipid A-binding (LAB)-motif (209SYPMTARRFLEKHGLLD225; SEQ ID NO: 67) with an additional Gly-Ser-linker and biotin modification was generated and used in an interferometry-based assay. […] Two peptides intended to destabilize essential lipid A binding determinants were tested as controls.
(In BLI a coated tip is dipped into the sample, and binding shifts an interference pattern.)

For another series, the system named is E. coli + FhuAΔC/Δ4L. It counts as cell-based, Escherichia coli. The conditions noted are these: Table 2; no EDTA.
Source text: pFhuAΔC/Δ4L was constructed by synthesizing the fhuA coding sequence lacking the N-terminal cork domain, Δ1-160, and extracellular loops L3, L4, L5, and L11 (Mohammad, et al., J Biol Chem 286, 8000-8013, (2011)).fhuAΔcΔ4L was amplified with primers N3P-105 (encoding the bla constitutive promoter, ribosome binding site, and AUG start codon from pUC19 (New England BioLabs) and N3P-107, and cloning into pACYC184 with BamHI and HindIII (New England BioLabs).
as §2
Peptide sensitivity and MIC assays. […] After 4 h, an equal volume (10 μL) of BacTiter-Glo™ (Promega) was added to each well and luminescence was read after 5 min on an EnVision plate reader (PerkinElmer). […] Plates were incubated at 37° C. for 20 h before measuring OD600 with an EnVision plate reader.

In a further series the test system is E. coli ΔwaaD. As to the kind of experiment: MIC assay, E. coli ΔwaaD. It counts as cell-based, Escherichia coli. Here is the method:
as §2
Peptide sensitivity and MIC assays. Lyophilized peptides (Smartox Biotechnology, CPC Scientific. ABclonal) were solubilized to 10 mM in Tris buffer, pH 8, prior to making a 2-fold dilution series in MHBII cation adjusted broth with highest final assay concentration of 400-800 μM. Bacteria were grown to log phase and added to final OD600˜0.001. The final EDTA concentration was 0.5 mM for E. coli strains and 0.125 mM for USA300. The final volume of 10 μL/well in a 384 well black, clear bottom plate (Corning) was spun <1 min at <250×g and then incubated at 37° C. After 4 h, an equal volume (10 μL) of BacTiter-Glo™ (Promega) was added to each well and luminescence was read after 5 min on an EnVision plate reader (PerkinElmer). To measure the minimal inhibitory concentrations (MICs), bacteria from fresh overnight plates or log phase cultures were diluted with or without EDTA and peptides as described above to final OD600˜0.0002. Plates were incubated at 37° C. for 20 h before measuring OD600 with an EnVision plate reader.

The subject of another series is E. coli ΔwaaD pmrB^D149Y. As to the kind of experiment: MIC assay, E. coli ΔwaaD pmrB^D149Y. The conditions noted are these: Table 4; + EDTA; PMX-resistant. It counts as cell-based, Escherichia coli. Here is the method:
as §2, §3

The test system of the next series is E. coli ΔwaaD MCR-1. The series can be described thus: MIC assay, E. coli ΔwaaD MCR-1. It counts as cell-based, Escherichia coli. To be noted: Table 4; + EDTA; PMX-resistant. Summed up: as §1
The next series has as its system wild-type E. coli strain. The series can be described thus: Bacterial growth inhibition, wild-type E. coli strain. It counts as cell-based, Escherichia coli. The procedure: as §2, §3

Like-named read-outs stand apart in the source and are kept apart here. Square brackets hold non-standard residues; d marks the D form. Peptide text beside a SMILES is read from it. Dap = NC[C@H](N)C(=O)O

On to `CSCC[C@H](NC(=O)[C@@H]1CCCN1C(=O)[C@H](Cc1ccc(O)cc1)NC(C)=O)C(=O)N[C@@H](CN)C(=O)N[C@@H](Cc1ccccc1)C(=O)N[C@@H](CCCNC(=N)N)C(=O)N[C@@H](CCCNC(=N)N)C(=O)N[C@@H](Cc1ccccc1)C(=O)N[C@@H](CC(C)C)C(=O)N[C@@H](CCC(=O)O)C(=O)N[C@@H](CCCCN)C(=O)N[C@@H](Cc1c[nH]c2ccccc12)C(=O)NCC(=O)N[C@@H](CC(C)C)C(=O)N[C@@H](CC(C)C)C(=O)N[C@@H](CCCNC(=N)N)C(N)=O` [SEQ ID NO: 69, YPM(Dap)FRRFLEKWGLLR] (Ac-YPM[Dap]FRRFLEKWGLLR-NH2), for which the MICs in the series on E. coli BW25113 (Table 5, E. coli K-12 (BW25113), WT) was determined as 25 µM; with E. coli mcr-1 it was 25 µM; in the series on S. aureus USA300 (Table 5, USA300 Gram-positive control), 400 µM; against E. coli imp4213 (Table 5, permeable) it was 6.25 µM; against E. cloacae (Table 5, ATCC 222, WT) it was 12.5 µM; in the series on K. pneumoniae (Table 5, ATCC 43816, WT), 100 µM. The MICs is 12.5 µM against A. baumannii (Table 5, ATCC 19606, WT); 200 µM in the series on P. aeruginosa (Table 5, PA-14, WT); 50 µM in the series with E. coli-ATCC 25922; 12.5 µM with E. coli pmrA^G53Y; 12.5 to 200 µM in series [2]; 12.5 to 25 µM in series [3]. Moreover, the “time-kill kinetics (CFUs over time)” value in the series on E. coli K12 is “bactericidal”. Besides, the “red blood cell lysis” value in the series on red blood cell is “no observe lysis”. Also, the growth inhibition entry in [1] is reported as “impacted only at very high concentrations”.

As to “Ac-SYPMTARRFLEKWGLLR-NH2 [SEQ ID NO: 68, SYPMTARRFLEKWGLLR]”, in series [4] (LABWT+ relative to LABWT), the “improved affinity towards LPS” value is reported as about 1.5 fold. In [4] (LPS (KDO2-lipid A), biotinylated peptide on SA biosensor, 25° C., estimated from equilibrium responses), the Kd (commonly the constant that tells how readily two partners part at equilibrium) was about 55 µM. Further, in [4] (versus the major PLs found in E. coli), the “selective binding to LPS over PLs” value is “maintaining selectivity over PL binding”. Further, the MIC (usually the smallest concentration in the dilution series that meets the test's criterion for growth inhibition) in the series with E. coli BW25113 (+ 0.5 mM EDTA) was 200 µM; against E. coli BW25113 (wild-type strain, no EDTA), over 800 µM; against S. aureus USA300 (Table 2, Gram-positive wild-type strain) it was over 800 µM; with E. coli imp4213 (Table 2, no EDTA), 25 µM; with E. coli + FhuAΔC/Δ4L, 50 µM; against E. coli ΔwaaD (Table 2, no EDTA), 400 µM. Moreover, the minimal inhibitory concentration (MIC) in the series with E. coli ΔwaaD (Table 4, + EDTA) was 100 µM; with E. cloacae (Table 3, + EDTA (2 mM)), 100 µM; in the series with K. pneumoniae (Table 3, + EDTA (2 mM)) it was over 400 µM; in the series on A. baumannii, 400 µM; with A. baumannii (listed as LABWT+) it was 200 µM; in the series with P. aeruginosa (Table 3, + EDTA (2 mM)) it was 400 µM. Also, the minimal inhibitory concentration (MIC) in the series on E. coli ΔwaaD pmrB^D149Y and with E. coli ΔwaaD MCR-1 was 100 µM throughout. In addition, the growth inhibition result in the series on wild-type E. coli strain is given as “failed to inhibit the growth”.

These data come from patent US20220135622A1, “ANTIBACTERIAL PEPTIDES AND METHODS OF USE” (priority 2019, published 2022).
